Results published in patent publication US5916915A, “Water-in-stable L-ascorbic acid derivative and a method for preparation thereof, and a skin-whitening cosmetic composition containing the same” (priority 1997, dated 1999).
Entries after “also recorded” stand apart in the source; their conditions may differ.

Experiments:
[1] = system: skin of healthy females; assay: Human Patch Test; type: in vivo
Protocol: Test was carried out for thirty(30) of healthy females aging 20~30 years according to CTFA Guideline(The Cosmetic, Toiletry and Fragrance Association. Inc. Washington, D.C., 20023, 1991).
The back of the subjected was washed with 70% of ethanol and dried, and then, applied with a finn chamber containing 20 μl of patch base incorporating 10% of AsA-APPA of Preparation Ex. 2. The finn chamber was fixed to the tested site using a micropore tape. 24 hours later, the tape and the chamber were removed, and the tested site was marked with marking pen. After 24 hours or 48 hours, skin responses of the tested sites were observed and skin irritation were evaluated according to ICDRG(International Contact Dermatitis Research Group)'s criterion.
*Average Response = Grade of the sample/4(Maximum grade) × 30(Total

[2] = system: fibroblast; assay: Proliferation of fibroblast (MTT method); type: cell-based; conditions: as low as, DMEM
Protocol: The skin obtained from new epidermal tissue was treated with Type 1 collagenase to remove epidermis. The obtained fibroblast was cultured on Dulbecco's Modified Eagle's Media(DMEM).
Amount of fibroblast was measured by way of MTT method.

[3] = system: ICR mice; assay: Acute Oral Toxicity Test; type: in vivo
Protocol: (§1) 10 ml/kg of AsA-APPA of Preparation Ex. 2 was diluted with physiological saline to give 50% of test sample. This test sample was orally administrated into the ten(10) of ICR mice(five males and five females) weighing 20~33 g (administrated amount of AsA-APPA: 5 g/kgweight). As a control, 10 ml/kg of physiological saline was orally administrated into the ten(10) of ICR mice(five males and five females) weighing 20~33 g (administrated amount of AsA-APPA: 0 g/kgweight).
(§2) At that day, general appearance was observed every hour for 6 hours. And, from the next day to 14 days, every day, were observed general appearance(clinical symptoms), toxic symptoms, death and the like. Further, change of weight was measured at 1, 3, 7 and 14 days.
(§3) Any of the mice dead during observation period were immediately subjected to autopsy, and the survival mice were subjected to autopsy after observation period.

[4] = Acute Oral Toxicity Test; type: in vivo, ICR mice; conditions: mouse, in vivo, po, acute oral, ICR mice, Litchfield-Wilcoxon's method; read-out: LD50 (lethal dose)
Protocol: as §1, §2, §3

[5] = system: skin of New Zealand White male rabbits; assay: Primary Skin Irritation Test; type: in vivo; conditions: rabbit
Protocol: Test was carried out for twelve(12) of New Zealand White male rabbits whose backs were depilated before 24 hours. And, 0.1 ml of AsA-APPA of Preparation Ex. 2 was diluted with physiological saline to give 50% of test sample.
The test sample was applied to two sites (2.5 cm×2.5 cm) of the right back (amount of AsA-APPA per site: 0.5 ml). As a control, two sites (2.5 cm×2.5 cm) of the left back were treated with 1.0 ml of physiological saline. Each tested site was covered with a gauze, which was fixed using an non-irritative tape. 24 Hours later, the tested sites were washed with physiological saline.

[6] = system: eye of New Zealand White rabbits; assay: Eye Irritation Test; type: in vivo; conditions: rabbit
Protocol: Test was carried out using the nine(9) of New Zealand White rabbits.
0.1 ml of AsA-APPA of Preparation Ex. 2 was diluted with physiological saline to give 10% of test sample. This test sample was dropped onto the right eye of each rabbit, taking the left eye as a control. After 20~30 seconds, only three(3) rabbits of them were washed sufficiently with the sterilized saline.

[7] = system: skin of healthy females; assay: Repeat Insult Human Patch Test; type: in vivo
Protocol: Test was carried out for twenty(20) of healthy females aging 20~30 years according to CTFA Guideline(The Cosmetic, Toiletry and Fragrance Association. Inc. Washington, D.C., 20023, 1991).
The back of the subjected was washed with 70% of propanol and dried, and then, applied with a finn chamber containing 20 μl of patch base incorporating 10% of AsA-APPA of Preparation Ex. 2. Applications were repeated every 24 hours for 3 weeks (Induction Period). After about 2 weeks, Challenge Insult Patch was carried out. At this step, the sites tested during the induction period and new sites were applied with the patches for 48 hours. […] And, skin irritation was evaluated according to ICDRG(International Contact Dermatitis Research Group)'s criterion.

[8] = system: ICR mice; assay: Acute Dermal Toxicity Test; type: in vivo
Protocol: (§4) 4 ml/kg of AsA-APPA of Preparation Ex. 2 was diluted with physiological saline to give 50% of test sample. This test sample was percutaneously administrated into the ten(10) of ICR mice(five males and five females) weighing 20~33 g (administrated amount of AsA-APPA: 2 g/kgweight). As a control, 4 ml/kg of physiological saline was percutaneously administrated into the ten(10) of ICR mice(five males and five females) weighing 20~33 g (administrated amount of AsA-APPA: 0 g/kgweight).
(§5) Before about 24 hours, the back of each mouce was depilated in a size of 1.5×1.5 cm^2. Then, each depilated site was covered with a gauze of 1×1 cm^2 applied with one of the test and control samples, and fixed using an non-irritative tape, for 24 hours.
(§6) At that day, general appearance was observed every hour for 6 hours. And, from the next day to 14 days, every day, were observed general appearance(clinical symptoms), toxic symptoms, death and the like. Further, change of weights was measured at 1, 3, 7 and 14 days.
as §3

[9] = Acute Dermal Toxicity Test; type: in vivo, ICR mice; conditions: mouse, in vivo, topical or ocular, acute dermal, ICR mice, Litchfield-Wilcoxon's method; read-out: LD50 (lethal dose)
Protocol: as §4, §5, §6, §3

[10] = 10% AsA-APPA, text and Table 5, unit not given

For NCCCOP(=O)(O)OC1=C(O)[C@@H]([C@@H](O)CO)OC1=O [AsA-APPA, 2-(3-aminopropanephosphoric acid)-L-ascorbate], the “Evaluation of human patch test” value ([1]; 10% AsA-APPA) was “primary irritative response, except for 1% of erythema, was hardly observed; also recorded: No irritative”, the Average response [1, 10] was 0.42 and the Response ([1]; 24 hr., N = 30, 10% AsA-APPA, erythema) was 1%. The “irritation after 48 hours” value ([1]; 48 hours, 10% AsA-APPA) was “all the irritation fade away”, the Response ([1]; 48 hr., N = 30, 10% AsA-APPA) was 0% and the “Average response” value ([1]; N = 30, 10% AsA-APPA, Table 3) was 0.42%. The “concentration showing effective fibroblast proliferation” value [2] was 10 mM, the Evaluation ([3]; Acute oral toxicity test) was “Innoxious” and the “LD50 (lethal dose)” value ([3]; acute oral, ICR mice, Litchfield-Wilcoxon's method, 20160 min) was greater than 5000 mg/kg. The autopsy findings ([3]; oral, 5 g/kg) was “no abnormal symptom was observed”, the “weight changes in comparison to the control” value ([3]; oral, 5 g/kg, 1, 3, 7 and 14 days) was “no significant difference” and the death ([3]; oral, 5 g/kg, 14 days) was “no dead mice”. For the same molecule, the LD50 at 336 h [4] was 5000 mg/kg, the “Evaluation of primary skin irritation” value [5] was “non-irritative or very low-irritative” and the “skin abnormality such as erythema and edema” value ([5]; 24 or 72 hours after removing the patches) was “no skin abnormality such as erythema and edema was observed”. The “Draize's PII (Primary Irritation Index)” value ([5]; due to erythema) was 0.13, the “Evaluation of eye irritation” value [6] was “No irritative” and the “eye irritation on cornea, iris and conjunctiva” value ([6]; after 24 hours or 48 hours, 10% test sample) was “no eye irritation on cornea, iris and conjunctiva was observed”. For the same molecule, the “Irritation rate of eye mucos (M.O.I)” value ([6]; washed and non-washed cases) was 0, the “Evaluation of repeat insult human patch test” value ([7]; 10% AsA-APPA) was “No irritative” and the “repeat irritation or sensitive irritation” value ([7]; 10% AsA-APPA) was “no repeat irritation or no sensitive irritation was observed”. The “Average response, challenge period” value ([7]; 10% AsA-APPA, unit not given) was 0, the “Average response, induction period” value [7, 10] was 0.14 and the “Average response, challenge period” value ([7]; n = 20, 10% AsA-APPA, Table 4) was 0%. For the same molecule, the “Average response, induction period” value ([7]; n = 20, 10% AsA-APPA, Table 4) was 0.14%, the “Induction Period response” value ([7]; week 1, 10% AsA-APPA) was 1 and the Evaluation ([8]; Acute dermal toxicity test) was “Innoxious”. For the same molecule, the “LD50 (lethal dose)” value ([8]; acute dermal, ICR mice, Litchfield-Wilcoxon's method, 20160 min) was greater than 2000 mg/kg, the autopsy findings ([8]; percutaneous, 2 g/kg) was “no abnormal symptom was observed” and the “weight changes in comparison to the control” value ([8]; percutaneous, 2 g/kg, 1, 3, 7 and 14 days) was “no significant difference”. The death ([8]; percutaneous, 2 g/kg, 14 days) was “no dead mice” and the LD50 at 336 h [9] was 2000 mg/kg.
